Series [1] deals with T1, rat NPT-IIb (Rattus norvegicus, UniProt Q9JJ09).
T1 construct: rat NPT-IIb ORF was cloned into p3×FLAG-CMV-10; 3xFLAG (N); expressed in transfected cells
T1 sequence (Q9JJ09 1-695): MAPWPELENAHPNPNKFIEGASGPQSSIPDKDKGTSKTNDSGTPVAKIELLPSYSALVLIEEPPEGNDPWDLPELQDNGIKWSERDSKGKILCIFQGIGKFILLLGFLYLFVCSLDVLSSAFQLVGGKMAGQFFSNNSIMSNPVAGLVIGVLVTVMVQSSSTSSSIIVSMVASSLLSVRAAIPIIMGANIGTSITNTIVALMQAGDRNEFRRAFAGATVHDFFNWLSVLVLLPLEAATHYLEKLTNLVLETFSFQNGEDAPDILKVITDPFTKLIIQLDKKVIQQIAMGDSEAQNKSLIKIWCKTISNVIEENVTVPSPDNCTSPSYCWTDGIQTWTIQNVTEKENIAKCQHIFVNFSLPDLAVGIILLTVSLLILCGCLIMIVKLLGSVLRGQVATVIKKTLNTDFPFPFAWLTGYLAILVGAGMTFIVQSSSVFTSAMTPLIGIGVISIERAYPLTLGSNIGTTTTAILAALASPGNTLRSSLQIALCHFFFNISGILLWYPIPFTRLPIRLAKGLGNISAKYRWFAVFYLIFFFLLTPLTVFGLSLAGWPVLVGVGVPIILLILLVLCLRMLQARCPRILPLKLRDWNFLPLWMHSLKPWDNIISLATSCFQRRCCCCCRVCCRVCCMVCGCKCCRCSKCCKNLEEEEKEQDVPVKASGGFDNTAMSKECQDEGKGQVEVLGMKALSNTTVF
The experiment in a line: 33P phosphate uptake inhibiting action of rat NPT-IIb expressing cell. Particulars: HEK293; evaluation concentration 1 μM; 33P uptake in rat NPT-IIb stably expressing 293 cells; read-out: Rat NPT-IIb inhibitory rate (%). The class given is cell-based. The text has this: Test Example 1: ^33P Phosphate Uptake Inhibiting Action of Rat NPT-IIb Expressing Cell
Preparation of Rat NPT-IIb Expressing Cell
Using rat small intestine cDNA library as a template, rat NPT-IIb ORF was cloned into p3×FLAG-CMV-10 by PCR according to a standard method. Then, the cloned rat NPT-IIb expressing plasmid was transfected into 293 cells, and G418 was used to obtain a rat NPT-11b-stably expressing cell line.
Evaluation System on Inhibition of Phosphate Uptake into Rat NPT-IIb Expressing Cell
The rat NPT-Hb expressing cells were seeded into a 96-well plate and incubated overnight. The medium was taken out and washed with buffer A (137 mM N-methyl-D-glucamine, 5.4 mM KCl, 2.8 mM CaCl2, 1.2 mM MgCl2, 10 mM HEPES (adjusted to pH 7.4 with HCl)), and then buffer B (137 mM NaCl, 5.4 mM KCl, 2.8 mM CaCl2, 1.2 mM MgCl2, 0.1 mM KH2PO4, 10 mM HEPES (adjusted to pH 7.4 with KOH)) was added thereto. Then, a compound having 10-fold higher concentration relative to the evaluation concentration was prepared by dilution with the buffer B and added thereto, followed by incubation in CO2 incubator. Buffer B supplemented 50 μCi/mL ^33P was added thereto, followed by further incubation in a CO2 incubator. After the reaction, the buffer was taken out and the cells were washed with buffer C (137 mM NaCl, 10 mM Tris/HCl pH 7.2). Then, Microscint-20 was added thereto and ^33P uptake was measured by using TopCount. The inhibitory rate was determined according to the following equation.
Inhibitory rate (%)=(1−(^33P uptake of drug-treated well)/(^33P uptake of DMSO-added well))×100
For several compounds of the formula (I), rat NPT-11b inhibitory activity at a pharmacological evaluation concentration of 1 μM is shown in Table 1. Here, Ex represents Example No. as denoted below (this shall apply hereinafter).

Series [2] relates to orally 32P phosphate loaded rats. The experiment in a line: Blood radioactivity increase inhibiting action in orally 32P phosphate loaded rats (phosphate absorption inhibitory action). The class given is in vivo. As to conditions: Rattus norvegicus, 0.5 h; 3 mg/kg oral, male Wistar rats; from serum radioactivity AUC0-30min vs control group; read-out: Phosphate absorption inhibitory rate (%). Here is the method:
Blood Radioactivity Increase Inhibiting Action in Orally ^32P Phosphate Loaded Rats (Phosphate Absorption Inhibitory Action)
Male Wistar rats (6 to 7 weeks old) were fasted for 24 hours and used as experimental animals. The compound was dissolved or suspended with a solvent, and was used at a concentration of 0.6 mg/mL. The compound-administered animals were forcibly orally administered with the compound at a dose of 3 mg/kg. Control-group animals were administered a solvent containing no compound at a dose of 5 mL/kg. After 5 minutes from administration of the compound or from administration of the solvent, a ^32P-containing phosphate solution (8.3 mM NaH2PO4) was orally administered thereto at a dose of 7.2 mL/kg. After 15 minutes and 30 minutes, the blood was taken from the orbital venous plexus and the serum was collected. Radioactivity in 0.1 mL of the serum was measured by a liquid scintillation counter. AUC0-30min calculated from the measured counts was considered as a phosphate absorption amount. The phosphate absorption inhibitory rate was determined from the AUC0-30min value according to the following equation.
Phosphate absorption inhibitory rate (%)=(1−Phosphate absorption count of compound-administered group/Phosphate absorption count of control group)×100
As a result, it was confirmed that several compounds of the formula (I) have an intestinal phosphate absorption inhibitory action. With the several compounds of the formula (I), the phosphate absorption inhibitory rates at a pharmacological evaluation dose of 3 mg/kg are shown in Table 2.

Molecules are shown by their SMILES. Some results are limits rather than exact numbers.

For `O=C(O)c1ccc(CCc2ccc(NC(=O)c3c(NC(=O)c4cccc(S(=O)(=O)N(C5CC5)[C@H]5CC[C@@H](C(=O)O)CC5)c4)sc4c3CCCC4)cc2)cc1` [Example 5, 4-{2-[4-({[2-({3-[(cis-4-carboxycyclohexyl)(cyclopropyl)sulfamoyl]benzoyl}amino)-4,5,6,7-tetrahydro-1-benzothiophen-3-yl]carbonyl}amino)phenyl]ethyl}benzoic acid], the inhibition at 1 µM in series [1] came out at 87%.

With `CCN([C@H]1CC[C@H](C(=O)O)CC1)S(=O)(=O)c1cccc(C(=O)Nc2sc3c(c2C(=O)Nc2ccc(CCCc4ccc(C(=O)O)cc4)cc2)CCCC3)c1` [Example 23, 4-{3-[4-({[2-({3-[(trans-4-carboxycyclohexyl)(ethyl)sulfamoyl]benzoyl}amino)-4,5,6,7-tetrahydro-1-benzothiophen-3-yl]carbonyl}amino)phenyl]propyl}benzoic acid], the melting point worked out at 178.5 °C. Besides, in series [2], the inhibition in vivo at 3 mg/kg is at least 60%. In series [1], the inhibition at 1 µM was found to be 86%.

Regarding `CCN([C@H]1CC[C@H](C(=O)O)CC1)S(=O)(=O)c1cccc(C(=O)Nc2sc3c(c2C(=O)Nc2ccc(CCc4ccc(C(=O)O)cc4)cc2)CCCC3)c1` [Example 2, 4-{2-[4-({[2-({3-[(trans-4-carboxycyclohexyl)(ethyl)sulfamoyl]benzoyl}amino)-4,5,6,7-tetrahydro-1-benzothiophen-3-yl]carbonyl}amino)phenyl]ethyl}benzoic acid], the melting point turned out to be 262.8 °C. Also, the inhibition in vivo at 3 mg/kg in series [2] was at least 60%. Moreover, in series [1], the inhibition at 1 µM is 83%.

Consider `C[C@@]1(C(=O)O)CCCN1S(=O)(=O)c1cccc(C(=O)Nc2sc3c(c2C(=O)Nc2ccc(CCc4ccc(C(=O)O)cc4)cc2)CCCC3)c1` [Example 25, 1-[(3-{[3-({4-[2-(4-carboxyphenyl)ethyl]phenyl}carbamoyl)-4,5,6,7-tetrahydro-1-benzothiophen-2-yl]carbamoyl}phenyl)sulfonyl]-2-methylproline], for which the inhibition at 1 µM in series [1] is 52%.

For the molecule `CN(CC(O)CO)S(=O)(=O)c1cccc(C(=O)Nc2sc3c(c2C(=O)Nc2ccc(CCc4ccc(C(=O)O)cc4)cc2)CCCC3)c1` (centres unmarked) [Example 29, 4-{2-[4-({[2-({3-[(2,3-dihydroxypropyl)(methyl)sulfamoyl]benzoyl}amino)-4,5,6,7-tetrahydro-1-benzothiophen-3-yl]carbonyl}amino)phenyl]ethyl}benzoic acid], the inhibition at 1 µM in series [1] is 51%.

On to `CCOC(=O)C1(N(CC)S(=O)(=O)c2cccc(C(=O)Nc3sc4c(c3C(=O)Nc3ccc(CCc5ccc(C(=O)O)cc5)cc3)CCCC4)c2)CC1` [Example 70], for which the inhibition at 1 µM in series [1] was 83%.

On to `CCOC(=O)CN(C1CC1)S(=O)(=O)c1cccc(C(=O)Nc2sc3c(c2C(=O)Nc2ccc(CCc4ccc(C(=O)OC)cc4)cc2)CCCC3)c1` [Example 6, methyl 4-{2-[4-({[2-({3-[cyclopropyl(2-ethoxy-2-oxoethyl)sulfamoyl]benzoyl}amino)-4,5,6,7-tetrahydro-1-benzothiophen-3-yl]carbonyl}amino)phenyl]ethyl}benzoate], for which the melting point stood at 186.8 °C.

On to `O=C(O)CCCN(C1CC1)S(=O)(=O)c1cccc(C(=O)Nc2sc3c(c2C(=O)Nc2ccc(CCc4ccc(C(=O)O)cc4)cc2)CCCC3)c1` [Example 12, 4-{2-[4-({[2-({3-[(3-carboxypropyl)(cyclopropyl)sulfamoyl]benzoyl}amino)-4,5,6,7-tetrahydro-1-benzothiophen-3-yl]carbonyl}amino)phenyl]ethyl}benzoic acid], for which the melting point is 250.8 °C. Besides, the inhibition in vivo at 3 mg/kg in series [2] is at least 60%. Moreover, the inhibition at 1 µM in series [1] was determined as 76%.

Regarding `CC(C)N(Cc1cccc(C(=O)O)c1)S(=O)(=O)c1cccc(C(=O)Nc2sc3c(c2C(=O)Nc2ccc(CCc4ccc(C(=O)O)cc4)cc2)CCCC3)c1` [Example 58], in series [2], the inhibition in vivo at 3 mg/kg was at least 60%. In addition, the inhibition at 1 µM in series [1] turned out to be 65%.

With `O=C(O)c1ccc(CCc2ccc(NC(=O)c3c(NC(=O)c4cccc(S(=O)(=O)N(C5CC5)[C@H]5CC[C@H](C(=O)O)CC5)c4)sc4c3CCCC4)cc2)cc1` [Example 4, 4-{2-[4-({[2-({3-[(trans-4-carboxycyclohexyl)(cyclopropyl)sulfamoyl]benzoyl}amino)-4,5,6,7-tetrahydro-1-benzothiophen-3-yl]carbonyl}amino)phenyl]ethyl}benzoic acid], the inhibition in vivo at 3 mg/kg in series [2] is at least 60%. The inhibition at 1 µM in series [1] came out at 82%.

For `CCCN([C@H]1CC[C@H](C(=O)O)CC1)S(=O)(=O)c1cccc(C(=O)Nc2sc3c(c2C(=O)Nc2ccc(CCCc4ccc(C(=O)O)cc4)cc2)CCCC3)c1` [Example 102], in series [2], the inhibition in vivo at 3 mg/kg was at least 60%. Moreover, the inhibition at 1 µM in series [1] turned out to be 87%.

Molecule `CCN(c1ccc(C(=O)O)cc1)S(=O)(=O)c1cccc(C(=O)Nc2sc3c(c2C(=O)Nc2ccc(CCc4ccc(C(=O)O)cc4)cc2)CCCC3)c1` [Example 21] gave a melting point of 159.4 °C. For the same molecule, in series [1], the inhibition at 1 µM turned out to be 85%.

On to `CC(=O)N1CCN(S(=O)(=O)c2cccc(C(=O)Nc3sc4c(c3C(=O)Nc3ccc(CCCc5ccc(C(=O)O)cc5)cc3)CCCC4)c2)CC1` [Example 109], for which the inhibition at 1 µM in series [1] came to 52%.

The molecule `CC(=O)N1CCN(S(=O)(=O)c2cccc(C(=O)Nc3sc4c(c3C(=O)Nc3ccc(CCc5ccc(C(=O)O)cc5)cc3)CCCC4)c2)CC1` [Example 27, 4-{2-[4-({[2-({3-[(4-acetylpiperazin-1-yl)sulfonyl]benzoyl}amino)-4,5,6,7-tetrahydro-1-benzothiophen-3-yl]carbonyl}amino)phenyl]ethyl}benzoic acid] came in with a melting point of 241.4 °C. Also, in series [1], the inhibition at 1 µM turned out to be 58%.

Regarding `CN(CCC(=O)O)S(=O)(=O)c1cccc(C(=O)Nc2sc3c(c2C(=O)Nc2ccc(CCc4ccc(C(=O)O)cc4)cc2)CCCC3)c1` [Example 10, 4-{2-[4-({[2-({3-[(2-carboxyethyl)(methyl)sulfamoyl]benzoyl}amino)-4,5,6,7-tetrahydro-1-benzothiophen-3-yl]carbonyl}amino)phenyl]ethyl}benzoic acid], the melting point was 230.3 °C. Further, in series [1], the inhibition at 1 µM turned out to be 42%.

Consider `CC(C)N(C1(C(=O)O)CC1)S(=O)(=O)c1cccc(C(=O)Nc2sc3c(c2C(=O)Nc2ccc(CCc4ccc(C(=O)O)cc4)cc2)CCCC3)c1` [Example 17, 4-{2-[4-({[2-({3-[(1-carboxycyclopropyl)(isopropyl)sulfamoyl]benzoyl}amino)-4,5,6,7-tetrahydro-1-benzothiophen-3-yl]carbonyl}amino)phenyl]ethyl}benzoic acid], for which the melting point came to 261.4 °C. Also, the inhibition at 1 µM in series [1] was 75%.

One may read the melting point as the temperature of the solid-liquid transition.

(Values after patent US20130029973A1, “TETRAHYDROBENZOTHIOPHENE COMPOUND” (ASTELLAS PHARMA INC., priority 2010, published 2013).)
